Laboratory results: PubChem BioAssay AID276 (DTP/NCI, 2004)
Values joined by “and” are separate entries in the source; they are usually repeats but may differ in a detail not shown here. Equal values may be shown once. Inconclusive results and toxic doses are left out. The calls were made as follows: active = survival T/C of 150% or more; inactive = T/C below 125% in these data.

Test system: B6C3F1 mice, Lewis lung carcinoma iv, survival T/C
Experiment: NCI In Vivo Anticancer Drug Screen. Data for tumor model Lewis Lung Carcinoma (intravenous) in B6C3F1 mice
Conditions: endpoint: median survival time, higher = longer survival
How it was run: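 Antitumor activity is assessed in tumor-bearing mice by comparing survival after compound treatment against vehicle-treated controls, reported as a T/C ratio.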

[1] = dose: 12.5 mg/kg/injection, schedule: Q01DX009 (ip), vehicle: Klucel (hydroxypropylcellulose) (HPC)
[2] = dose: 25.0 mg/kg/injection, schedule: Q01DX009 (ip), vehicle: Klucel (hydroxypropylcellulose) (HPC)
[3] = dose: 50.0 mg/kg/injection, schedule: Q01DX009 (ip), vehicle: Klucel (hydroxypropylcellulose) (HPC)
[4] = dose: 100.0 mg/kg/injection, schedule: Q01DX009 (ip), vehicle: Klucel (hydroxypropylcellulose) (HPC)
[5] = dose: 25.0 mg/kg/injection, schedule: Q01DX009 (ip), vehicle: saline with Tween-80
[6] = dose: 50.0 mg/kg/injection, schedule: Q01DX009 (ip), vehicle: saline with Tween-80
[7] = dose: 100.0 mg/kg/injection, schedule: Q01DX009 (ip), vehicle: saline with Tween-80
[8] = dose: 200.0 mg/kg/injection, schedule: Q01DX009 (ip), vehicle: saline with Tween-80
[9] = dose: 400.0 mg/kg/injection, schedule: Q01DX009 (ip), vehicle: saline with Tween-80
[10] = dose: 12.5 mg/kg/injection, schedule: Q01DX009 (ip), vehicle: water
[11] = dose: 25.0 mg/kg/injection, schedule: Q01DX009 (ip), vehicle: water
[12] = dose: 12.5 mg/kg/injection, schedule: Q01DX009 (ip), vehicle: saline

Measured: T/C

CC(C)CCC(=O)c1ccoc1
inactive: dose: 0.12 mg/kg/injection, schedule: Q03HX027 (ip), vehicle: saline with Tween-80 99 % of control | dose: 0.25 mg/kg/injection, schedule: Q03HX027 (ip), vehicle: saline with Tween-80 97 % of control | dose: 0.5 mg/kg/injection, schedule: Q03HX027 (ip), vehicle: saline with Tween-80 109 % of control | dose: 1.0 mg/kg/injection, schedule: Q03HX027 (ip), vehicle: saline with Tween-80 117 % of control

CCCCCC[C@H]([C@H](C)O)n1cnc2c(N)ncnc21
inactive: dose: 3.12 mg/kg/injection, schedule: Q01DX009 (ip), vehicle: Klucel (hydroxypropylcellulose) (HPC) 88 % of control | dose: 6.25 mg/kg/injection, schedule: Q01DX009 (ip), vehicle: Klucel (hydroxypropylcellulose) (HPC) 101 % of control | [1] 114 % of control | [2] 94 % of control | [3] 109 % of control | [4] 105 % of control

O=C1SC(c2ccccc2)=S=C1c1ccccc1
inactive: [5] 100 % of control | [6] 93 % of control | [7] 95 % of control | [8] 104 % of control | [9] 108 % of control

C/C(=N\NC(=S)N1CCN(c2ccccn2)CC1)c1ccccn1
inactive: dose: 6.25 mg/kg/injection, schedule: Q01DX009 (ip), vehicle: water 109 % of control | [10] 104 % of control | [11] 113 % of control

CN(C)N=Nc1cccc(C(N)=O)c1
inactive: dose: 10.0 mg/kg/injection, schedule: Q01DX009 (ip), vehicle: Klucel (hydroxypropylcellulose) (HPC) 114 % of control | dose: 20.0 mg/kg/injection, schedule: Q01DX009 (ip), vehicle: Klucel (hydroxypropylcellulose) (HPC) 115 % of control

CCc1nc(N)nc(N)c1-c1ccc(Cl)c(N=[N+]=[N-])c1
inactive: dose: 12.5 mg/kg/injection, schedule: Q01DX009 (ip), vehicle: distilled water + Tween-80 97 % of control | dose: 25.0 mg/kg/injection, schedule: Q01DX009 (ip), vehicle: distilled water + Tween-80 100 % of control | dose: 50.0 mg/kg/injection, schedule: Q01DX009 (ip), vehicle: distilled water + Tween-80 100 % of control | dose: 100.0 mg/kg/injection, schedule: Q01DX009 (ip), vehicle: distilled water + Tween-80 106 % of control and 110 % of control | dose: 200.0 mg/kg/injection, schedule: Q01DX009 (ip), vehicle: distilled water + Tween-80 119 % of control

c1nc(N2CC2)c2cnn(C3CCCCO3)c2n1 (stereo not given)
inactive: [6] 103 % of control | [7] 107 % of control | [8] 112 % of control

ClCCCN1CCCCC1CCl (stereo not given)
inactive: dose: 0.78 mg/kg/injection, schedule: Q01DX009 (ip), vehicle: saline 101 % of control | dose: 1.56 mg/kg/injection, schedule: Q01DX009 (ip), vehicle: saline 108 % of control | dose: 3.12 mg/kg/injection, schedule: Q01DX009 (ip), vehicle: saline 98 % of control | dose: 6.25 mg/kg/injection, schedule: Q01DX009 (ip), vehicle: saline 101 % of control | [12] 121 % of control

COc1cc(C2c3cc4c(cc3C(O)C(CO)C2CO)OCO4)cc(OC)c1OC (stereo not given)
inactive: [1] 102 % of control | [2] 104 % of control | [3] 102 % of control | [4] 113 % of control

Cc1cc(NS(=O)(=O)c2ccc(N=Nc3cc(N=Nc4ccc(S(=O)(=O)Nc5cc(C)nc(C)n5)cc4)c4c(NC(=O)C(Cl)Cl)cccc4c3OC(=O)C(Cl)Cl)cc2)nc(C)n1 (tested in a mixture with another compound)
inactive: dose: 25.0 mg/kg/injection, schedule: Q01DX009 (ip), vehicle: suspension in saline 105 % of control | dose: 50.0 mg/kg/injection, schedule: Q01DX009 (ip), vehicle: suspension in saline 90 % of control | dose: 100.0 mg/kg/injection, schedule: Q01DX009 (ip), vehicle: suspension in saline 88 % of control | dose: 200.0 mg/kg/injection, schedule: Q01DX009 (ip), vehicle: suspension in saline 88 % of control

O=C(NC1CCCCC1)OCc1c(COC(=O)NC2CCCCC2)c(-c2ccc(Cl)c(Cl)c2)n2c1CCC2
inactive: [5] 100 % of control and 108 % of control | [6] 102 % of control and 105 % of control | [7] 95 % of control and 108 % of control | [8] 106 % of control and 113 % of control | [9] 110 % of control and 120 % of control

CN(Cc1cnc2nc(N)nc(N)c2n1)c1ccc(C(=O)N[C@@H](CCC(=O)O)C(=O)O)cc1
inactive: dose: 1.0 mg/kg/injection, schedule: Q01DX009 (ip), vehicle: sodium bicarbonate 102 % of control | dose: 2.0 mg/kg/injection, schedule: Q01DX009 (ip), vehicle: sodium bicarbonate 107 % of control and 88 % of control | dose: 4.0 mg/kg/injection, schedule: Q01DX009 (ip), vehicle: sodium bicarbonate 96 % of control and 102 % of control

CC[C@@]1(O)C(=O)OCc2c1cc1n(c2=O)Cc2cc3ccccc3nc2-1
inactive: dose: 0.37 mg/kg/injection, schedule: Q01DX009 (ip), vehicle: saline with Tween-80 102 % of control | dose: 0.75 mg/kg/injection, schedule: Q01DX009 (ip), vehicle: saline with Tween-80 105 % of control | dose: 1.5 mg/kg/injection, schedule: Q01DX009 (ip), vehicle: saline with Tween-80 122 % of control

Cn1cnc([N+](=O)[O-])c1SCC(=O)O
inactive: [12] 100 % of control | dose: 25.0 mg/kg/injection, schedule: Q01DX009 (ip), vehicle: saline 107 % of control | dose: 50.0 mg/kg/injection, schedule: Q01DX009 (ip), vehicle: saline 103 % of control | dose: 100.0 mg/kg/injection, schedule: Q01DX009 (ip), vehicle: saline 93 % of control | dose: 200.0 mg/kg/injection, schedule: Q01DX009 (ip), vehicle: saline 104 % of control | dose: 400.0 mg/kg/injection, schedule: Q01DX009 (ip), vehicle: saline 96 % of control

Cc1noc(N)c1N
inactive: [10] 101 % of control | [11] 95 % of control | dose: 50.0 mg/kg/injection, schedule: Q01DX009 (ip), vehicle: water 102 % of control | dose: 100.0 mg/kg/injection, schedule: Q01DX009 (ip), vehicle: water 92 % of control | dose: 200.0 mg/kg/injection, schedule: Q01DX009 (ip), vehicle: water 98 % of control | dose: 400.0 mg/kg/injection, schedule: Q01DX009 (ip), vehicle: water 106 % of control

O/N=C/c1ccccc1O.O/N=C/c1ccccc1O.[Cu]
inactive: dose: 1.56 mg/kg/injection, schedule: Q01DX009 (ip), vehicle: saline with Tween-80 113 % of control | dose: 3.12 mg/kg/injection, schedule: Q01DX009 (ip), vehicle: saline with Tween-80 100 % of control | dose: 6.25 mg/kg/injection, schedule: Q01DX009 (ip), vehicle: saline with Tween-80 104 % of control | dose: 12.5 mg/kg/injection, schedule: Q01DX009 (ip), vehicle: saline with Tween-80 96 % of control | [5] 104 % of control | [6] 96 % of control

COC(=O)NC1C(C)OC(OC2C/C=C(/C)C3C=CC4C(OC5CC(OC6CCC(OC7CC(O)C(OC8CCC(O)C(C)O8)C(C)O7)C(C)O6)C(OC(C)=O)C(C)O5)C(C)CC(C)C4C3(C)/C(O)=C3/C(=O)OC4(CC(C=O)=CC(O)C4/C=C\2C)C3=O)CC1(C)[N+](=O)[O-] (stereo not given)
inactive: dose: 1.25 mg/kg/injection, schedule: Q01DX009 (ip), vehicle: water 108 % of control | dose: 2.5 mg/kg/injection, schedule: Q01DX009 (ip), vehicle: water 97 % of control | dose: 5.0 mg/kg/injection, schedule: Q01DX009 (ip), vehicle: water 98 % of control

O=c1[nH]c(=O)n(C2CC(O)C(CO)O2)cc1F (stereo not given)
inactive: dose: 147.0 mg/kg/injection, schedule: Q04DX003 (ip), vehicle: saline 102 % of control | dose: 210.0 mg/kg/injection, schedule: Q04DX003 (ip), vehicle: saline 118 % of control
